Key:
[1] = molecular target: T1, cyclooxygenase-1 (COX-1 enzyme) (Homo sapiens, UniProt P23219); assay: Human whole blood in vitro activity assay, COX-1 (TXB2 by EIA); assay type: cell-based; settings: read-out: IC50 (μg/mL) COX-1 (converted)
T1 construct: from tissue; host or cells: human whole blood without heparin (platelets) from healthy volunteers
Protocol: (§1) Human whole blood in vitro activity study: inhibition of activity of cyclooxygenase-1 (COX-1 enzyme) and cyclooxygenase-2 (COX-2 enzyme) in human blood. […] The blood samples were divided into two parts: one was used for detecting COX-1 enzyme activity, and the other was used for detecting COX-2 enzyme activity. The compounds were dissolved in DMSO, and were prepared in advance into 2 μL solutions in respective concentrations of 500, 50, 5, 0.5, 0.05, 0.005, 0.0005 μg/mL. 200 μL whole blood without heparin was added in the tubes containing the compounds, and then incubated at 37° C. for 1 hour. The activity of COX-1 enzyme was detected by determining the amount of thromboxane B2 (TXB2) synthesized by platelet using an EIA kit. Samples tested without the compounds were negative controls. For COX-2, 200 μL whole blood with heparin was added in the tubes containing the compounds and in the tubes containing 10 μg/mL LPS. LPS control and blank control with solvent only were used respectively for determining the maximum value and the background value of the PGE2 produced therefrom. The samples were incubated at 37° C. for 24 hours, and then centrifuged to collect serum/plasma, which was stored at −80° C. for detection by an EIA kit. The EIA kit of Cayman Company was used, the amounts of TXB2 and PGE2 were determined in accordance to the manufacturer's instructions, and the activities of COX-1 and COX-2 were tested respectively.

[2] = molecular target: T2, cyclooxygenase-2 (COX-2 enzyme) (Homo sapiens, UniProt P35354); assay: Human whole blood in vitro activity assay, COX-2 (LPS-induced PGE2 by EIA); assay type: cell-based; settings: for IC50: LPS, PGE2, read-out: IC50 (μg/mL) COX-2 (converted)
T2 construct: from tissue; host or cells: heparinised human whole blood from healthy volunteers, stimulated with LPS
T2 sequence (P35354 18-604): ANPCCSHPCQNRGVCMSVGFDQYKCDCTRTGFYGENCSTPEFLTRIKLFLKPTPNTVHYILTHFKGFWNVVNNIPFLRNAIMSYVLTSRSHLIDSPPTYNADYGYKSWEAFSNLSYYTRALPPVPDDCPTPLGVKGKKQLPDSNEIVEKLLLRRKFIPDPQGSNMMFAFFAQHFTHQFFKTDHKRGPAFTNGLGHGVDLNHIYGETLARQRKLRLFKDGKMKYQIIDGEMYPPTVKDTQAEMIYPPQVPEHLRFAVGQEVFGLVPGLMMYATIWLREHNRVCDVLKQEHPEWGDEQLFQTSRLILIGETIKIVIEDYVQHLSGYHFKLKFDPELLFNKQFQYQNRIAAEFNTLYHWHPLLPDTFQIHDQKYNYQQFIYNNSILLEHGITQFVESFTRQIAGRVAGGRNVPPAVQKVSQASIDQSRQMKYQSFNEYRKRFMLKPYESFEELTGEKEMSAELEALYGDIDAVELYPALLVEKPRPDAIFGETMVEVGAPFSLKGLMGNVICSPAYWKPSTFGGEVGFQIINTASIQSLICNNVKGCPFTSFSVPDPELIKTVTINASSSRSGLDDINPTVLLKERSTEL
Protocol: as §1

COX-1 = molecular target: T3, COX-1 (Canis lupus familiaris, UniProt Q8HZR1); assay: Dog whole blood in vitro activity assay, COX-1; assay type: cell-based, beagle dog; settings: read-out: IC50 (μg/mL) COX-1 (converted)
T3 construct: in vitro activity study using beagle dog whole blood was conducted; from tissue; host or cells: beagle dog whole blood (platelets, by the same method as for human blood)
T3 sequence (Q8HZR1 28-603): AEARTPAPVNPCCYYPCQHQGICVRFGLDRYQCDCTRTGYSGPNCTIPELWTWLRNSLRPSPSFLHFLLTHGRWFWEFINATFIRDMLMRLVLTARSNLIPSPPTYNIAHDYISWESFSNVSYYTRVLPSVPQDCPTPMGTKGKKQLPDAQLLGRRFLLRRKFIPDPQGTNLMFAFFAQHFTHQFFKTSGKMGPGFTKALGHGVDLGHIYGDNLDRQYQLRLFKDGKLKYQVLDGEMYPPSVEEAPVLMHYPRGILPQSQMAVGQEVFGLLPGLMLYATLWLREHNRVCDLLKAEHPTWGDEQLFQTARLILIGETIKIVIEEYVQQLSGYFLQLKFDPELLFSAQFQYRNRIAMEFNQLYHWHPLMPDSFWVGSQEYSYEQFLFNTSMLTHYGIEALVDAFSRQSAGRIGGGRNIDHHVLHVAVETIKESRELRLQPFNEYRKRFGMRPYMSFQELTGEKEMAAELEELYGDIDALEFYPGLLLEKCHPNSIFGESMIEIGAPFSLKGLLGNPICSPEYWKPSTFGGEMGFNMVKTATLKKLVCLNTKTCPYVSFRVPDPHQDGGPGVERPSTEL

COX-2 = molecular target: T4, COX-2 (Canis lupus familiaris, UniProt Q8SPQ9); assay: Dog whole blood in vitro activity assay, COX-2; assay type: cell-based, beagle dog; settings: for IC50: read-out: IC50 (μg/mL) COX-2 (converted)
T4 construct: in vitro activity study using beagle dog whole blood was conducted; from tissue; host or cells: beagle dog whole blood, stimulated with LPS (by the same method as for human blood)
T4 sequence (Q8SPQ9 18-604): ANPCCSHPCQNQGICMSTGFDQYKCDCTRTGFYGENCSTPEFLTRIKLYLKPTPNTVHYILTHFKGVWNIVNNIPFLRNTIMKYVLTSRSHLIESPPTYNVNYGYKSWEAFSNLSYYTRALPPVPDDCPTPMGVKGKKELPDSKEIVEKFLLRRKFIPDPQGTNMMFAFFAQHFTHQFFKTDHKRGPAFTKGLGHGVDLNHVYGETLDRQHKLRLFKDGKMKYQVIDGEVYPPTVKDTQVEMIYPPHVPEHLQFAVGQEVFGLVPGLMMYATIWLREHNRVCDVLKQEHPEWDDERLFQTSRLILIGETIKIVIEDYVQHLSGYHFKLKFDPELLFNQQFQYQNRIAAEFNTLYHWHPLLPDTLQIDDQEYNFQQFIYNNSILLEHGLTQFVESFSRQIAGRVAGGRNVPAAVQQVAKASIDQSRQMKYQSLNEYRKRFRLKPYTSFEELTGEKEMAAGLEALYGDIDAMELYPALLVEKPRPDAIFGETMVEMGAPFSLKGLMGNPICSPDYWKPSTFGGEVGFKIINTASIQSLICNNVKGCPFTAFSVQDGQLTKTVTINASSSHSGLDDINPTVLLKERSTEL

[3] = Pharmacokinetic study, intravenous, rats; assay type: in vivo; settings: male SD rats, IV 2 mg/kg
Protocol: Cimicoxib (cimicoxib) was IV administrated to male SD rats in vivo [2 mg/kg, 2 mg/ml, menstruum: DMSO/PEG 400/30% HP-b-CD ([…])], T1/2 was 3.20 h. The half-life of compound 1 was longer than cimicoxib.

T1 sequence (P23219 24-599): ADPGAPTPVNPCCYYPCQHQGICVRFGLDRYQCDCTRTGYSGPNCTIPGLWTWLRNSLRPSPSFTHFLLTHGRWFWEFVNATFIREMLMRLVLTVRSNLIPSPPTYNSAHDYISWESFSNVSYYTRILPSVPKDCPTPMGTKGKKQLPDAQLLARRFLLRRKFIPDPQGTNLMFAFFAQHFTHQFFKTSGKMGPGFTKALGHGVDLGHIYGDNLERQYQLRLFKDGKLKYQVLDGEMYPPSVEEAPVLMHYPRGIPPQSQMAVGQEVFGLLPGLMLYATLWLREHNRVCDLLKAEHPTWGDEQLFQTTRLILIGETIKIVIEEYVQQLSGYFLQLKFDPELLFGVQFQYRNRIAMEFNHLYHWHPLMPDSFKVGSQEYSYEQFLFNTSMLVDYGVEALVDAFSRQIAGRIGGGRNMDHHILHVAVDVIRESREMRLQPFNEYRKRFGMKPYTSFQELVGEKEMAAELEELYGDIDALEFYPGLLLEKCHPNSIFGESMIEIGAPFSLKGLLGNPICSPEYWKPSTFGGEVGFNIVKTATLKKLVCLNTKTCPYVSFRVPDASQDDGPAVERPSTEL

| IC50 [1] [µM] | IC50COX-1/IC50COX-2 [2] | IC50 [2] [µM] | IC50 (COX-1) [µM] | IC50COX-1/IC50COX-2 (COX-2) | IC50 (COX-2) [µM] | t1/2 [3] [h] | AUC(0-t) ([3]; rat, in vivo) [ng·h/mL] | C0 ([3]; rat, in vivo) [ng/mL] | clearance ([3]; rat, in vivo) [mL/min/kg] | half-life ([3]; rat, in vivo, 2 mg/ml, DMSO/PEG 400/30% HP-b-CD) [h] | Vd ([3]; rat, in vivo, read-out: Vss) [L/kg] | Compound |
| --- | --- | --- | --- | --- | --- | --- | --- | --- | --- | --- | --- | --- |
| 62.5 | 247.2 | 0.253 | 553 | 239.6 | 2.31 |  |  |  |  |  |  | COc1ccc(-c2c(Cl)ncn2-c2ccc(S(C)(=O)=O)nc2)cc1 [Compound 9, 5-(4-chloro-5-(4-methoxyphenyl)-1H-imidazol-1-yl)-2-(methylsulfonyl)pyridine] |
| 4.16 | 8.8 | 0.471 | 15.6 | 9.5 | 1.65 | 3.20 ± 0.80 | 12000 ± 4400 | 1980 ± 140 | 2.99 ± 0.92 | 3.2 | 0.773 ± 0.145 | COc1ccc(-c2c(Cl)ncn2-c2ccc(S(N)(=O)=O)cc2)cc1F [Cimicoxib, reference compound] |
| 11.2 | 21.8 | 0.512 | 55.9 | 21.4 | 2.62 |  |  |  |  |  |  | CS(=O)(=O)c1ccc(-n2cnc(Cl)c2-c2ccc(F)cc2)nc1 [Compound 2, 2-(4-chloro-5-(4-fluorophenyl)-1H-imidazol-1-yl)-5-(methylsulfonyl)pyridine] |
| 185 | 58.8 | 3.14 |  |  |  |  |  |  |  |  |  | COc1ccc(-c2c(Cl)ncn2-c2ccc(S(C)(=O)=O)nc2)cc1F [Compound 10, 5-(4-chloro-5-(3-fluoro-4-methoxyphenyl)-1H-imidazol-1-yl)-2-(methylsulfonyl)pyridine] |
| 8.8 | 25.8 | 0.34 |  |  |  |  |  |  |  |  |  | COc1ccc(-c2c(Cl)ncn2-c2ccc(S(C)(=O)=O)cn2)cc1F [Compound 6, 2-(4-chloro-5-(3-fluoro-4-methoxyphenyl)-1H-imidazol-1-yl)-5-(methylsulfonyl)pyridine] |
| > 1500 | >416 | 3.59 |  |  |  |  |  |  |  |  |  | CS(=O)(=O)c1ccc(-n2cnc(Cl)c2-c2ccccc2)cn1 [Compound 8, 5-(4-chloro-5-phenyl-1H-imidazol-1-yl)-2-(methylsulfonyl)pyridine] |

| Compound | IC50 [1] [µM] | IC50COX-1/IC50COX-2 [2] | IC50 [2] [µM] | IC50 (COX-1) [µM] | IC50COX-1/IC50COX-2 (COX-2) | IC50 (COX-2) [µM] | t1/2 [3] [h] | AUC(0-t) ([3]; rat, in vivo) [ng·h/mL] | C0 ([3]; rat, in vivo) [ng/mL] | clearance ([3]; rat, in vivo) [mL/min/kg] | half-life ([3]; rat, in vivo, 2 mg/ml, DMSO/PEG 400/30% HP-b-CD) [h] | Vd ([3]; rat, in vivo, read-out: Vss) [L/kg] |
| --- | --- | --- | --- | --- | --- | --- | --- | --- | --- | --- | --- | --- |
| Cc1ccc(-c2c(Cl)ncn2-c2ccc(S(C)(=O)=O)cn2)cc1 [Compound 3, 2-(4-chloro-5-p-tolyl-1H-imidazol-1-yl)-5-(methylsulfonyl)pyridine] | 19.7 | 76.2 | 0.259 | 30.2 | 18.8 | 1.61 |  |  |  |  |  |  |

Source: US9079876B2, “Imidazole derivatives and preparation method and use thereof” (Beijing Orbiepharm Co., Ltd., priority 2010, dated 2015)
